Experimental data from patent publication US12029730B2, “Pharmaceutical composition for preventing or treating cancer, containing N-1H-benzimidazol-2-yl-3-(1H-pyrrole-1-yl)benzamide as active ingredient” (KOREA INSTITUTE OF RADIOLOGICAL & MEDICAL SCIENCES, priority 2018, dated 2024).

Columns and labels:
MASTL kinase [1] = molecular target: T1, MASTL kinase (Homo sapiens, UniProt Q96GX5); experiment: ADP-Glo luminescence-kinase assay; format: biochemical; details: 10 μM ATP, FIG. 2
T1 construct: GST; purchased Thermo Fisher Scientific
T1 sequence (Q96GX5 1-879): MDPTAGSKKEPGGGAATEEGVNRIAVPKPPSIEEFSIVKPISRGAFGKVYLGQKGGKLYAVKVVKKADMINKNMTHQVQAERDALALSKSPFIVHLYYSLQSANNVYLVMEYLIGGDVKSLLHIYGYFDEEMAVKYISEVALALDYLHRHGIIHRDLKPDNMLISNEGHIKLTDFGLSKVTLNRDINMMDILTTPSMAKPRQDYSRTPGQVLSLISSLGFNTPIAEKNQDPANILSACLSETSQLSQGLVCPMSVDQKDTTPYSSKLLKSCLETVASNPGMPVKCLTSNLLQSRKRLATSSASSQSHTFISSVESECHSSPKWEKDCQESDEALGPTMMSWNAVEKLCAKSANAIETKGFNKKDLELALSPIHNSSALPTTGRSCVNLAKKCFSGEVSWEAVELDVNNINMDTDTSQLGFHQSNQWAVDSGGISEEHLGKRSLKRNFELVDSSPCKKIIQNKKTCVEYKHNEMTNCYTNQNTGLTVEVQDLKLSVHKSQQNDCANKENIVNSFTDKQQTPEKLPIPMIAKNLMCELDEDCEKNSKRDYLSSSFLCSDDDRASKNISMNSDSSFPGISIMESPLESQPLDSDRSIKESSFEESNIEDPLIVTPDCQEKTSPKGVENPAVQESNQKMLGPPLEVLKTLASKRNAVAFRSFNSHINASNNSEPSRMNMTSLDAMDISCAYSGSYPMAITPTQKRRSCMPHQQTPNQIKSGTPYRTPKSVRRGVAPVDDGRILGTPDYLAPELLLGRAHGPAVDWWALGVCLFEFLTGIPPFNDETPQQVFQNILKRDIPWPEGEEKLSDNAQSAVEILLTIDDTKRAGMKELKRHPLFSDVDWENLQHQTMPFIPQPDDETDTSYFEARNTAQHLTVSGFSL
Experimental: A protein kinase analysis was performed using the ADP-Glo™ kinase assay kit according to the standard protocol provided by Promega. […] A solution of a serial 2-fold dilution of the MASTL kinase inhibitor (GKI-1, MKI-1 or AT13148) was prepared and MASTL kinase […], ENSA 250 ng and 10 μM ATP was mixed in a kinase reaction buffer consisting of 100 mM Tris-HCl (pH 7.5), 30 mM MgCl2, 2 mM DTT, 1 mM EDTA and 10 μM ultra-pure ATP (Promega). Thereafter, the mixture was reacted at 30° C. for 30 minutes in an E-tube, and a kinase detection reagent was added thereto, followed by reacting for 30 minutes to detect the converted ATP. Then, the reacted product was transferred to a 384-well white plate, and […] was read using a SpectraMax i3× Multi-Mode Microplate Reader (Molecular Devices), and GKI-1, N-(4-chlorophenyl)-3-(1H-pyrazol-4-yl)aniline and AT13148 were used as positive controls. The effect of inhibiting kinase activity of GKI-1 and MKI-1 and its IC50 confirmed through the reading result were shown in FIG. 2. In addition, enzyme activity assay was performed under the same conditions except for the treatment of each concentration of MKI-1 (0, 6.25, 12.5, 25, 50 and 100 μM) through western blot, and it was shown in FIG. 3.

[2] = test system: MASTL kinase (phosphorylated ENSA); experiment: Immunofluorescence staining of phosphorylated ENSA (Ser67)/ARPP19 (ser62) in MCF7; format: cell-based, human; details: with Colcemid 16 to 18 hours, FIG. 4
Experimental: After culturing 2.5×10^4 MCF7 cells in a 6-well plate for 24 hours, 80 ng/mL of a MASTL kinase inhibitor and a cell cycle control agent Colcemid (KaryoMAX™ Colcemid™ Solution in PBS; Gibco) were treated for 16 to 18 hours. After washing with phosphate buffered saline for fixation and permeabilization of cells, 4% paraformaldehyde and 0.2% Triton-X were added and reacted for 10 minutes, respectively. After 1 hour pretreatment with 5% fetal bovine serum, 1:100 diluted antibody against phosphorylated ENSA (Ser67)/ARPP19 (ser62) was treated for 16 hours, and then it was washed with 0.1% Triton X-100/phosphate buffered saline solution (Tritonx-100/PBS) 3 times. Alexa488-conjugated secondary antibody (AP132JA4, Invitrogen) was reacted for 2 hours at room temperature to label, and phosphorylated ENSA was photographed and analyzed using IN Cell Analyzer 6000 (GE Healthcare Life Science).

AKT = experiment: Western blotting of AKT and GSK-3 phosphorylation in MCF7 cells; format: cell-based, human; details: western blot, FIG. 5
Experimental: (§1) 20 μg of protein was separated by SDS-PAGE electrophoresis and transferred to a PVDF membrane, and the following specific antibodies were used: rabbit polyclonal antibody MASTL (Abgent); phospho-ENSA (Ser67)/ARPP19 (Ser62) (#5240), ENSA (#11915S), cleaved PARP (Asp214) (#9541), AKT (#9272), phospho-AKT (ser473) (#9271), phospho-GSK-3α/β (Ser21/9) (#9331), phospho-p70S6K (The 288) (#9205) and phospho-Chk2 (Thr68) (#2661; Cell Signaling Technology, MA); p70S6K (sc-230; Santa Cruz Biotechnology, CA, USA), phospho-H3 (S10) (06-570, Merck, NJ); mouse monoclonal antibody caspase-2 (#2224S). In addition, mouse […] antibody β-actin (C4; Santa Cruz Biotechnology, CA, USA) was used as a loading control, it was washed with 1×PBS/0.1% Tween 20, and the binding protein was detected using HRP-binding secondary antibody and improved chemiluminescence detection system. The remaining conditions of Western blotting were the same as in Example 3, and the image of the band was obtained by Amersham Imager 600 system (GE Healthcare Life Science) or X-Ray film (AG, HealthCare, SC, USA) and it was shown in FIG. 5.

phospho-H3 (S10) = experiment: Western blotting of phosphorylated H3 in MCF7 cells; format: cell-based, human; details: western blot, FIG. 5
Experimental: as §1

MASTL kinase [3] = molecular target: T1, MASTL kinase; experiment: In vitro MASTL kinase analysis, immunoblotting for phosphorylated ENSA; format: biochemical; details: western blot, 50 μM or more, FIG. 3
Experimental: The MASTL kinase analysis in vitro was performed by reacting recombinant GST-tagged-MASTL (Thermo Fisher Scientific, Waltham, MA, USA) and his-tagged-ENSA (Sino Biological Inc., Beijing, China) proteins or immunoprecipitated proteins derived from MCF7 cells with the MASTL antibody (AP7147d; Abgent, CA, USA) in a kinase buffer consisting of 100 mM Tris-HCl (pH 7.5), 30 mM MgCl2, 2 mM DTT, 1 mM EDTA and 10 μM ultrapure ATP. The reaction proceeded, and then stopped by treating with SDS-loading buffer. In this experiment, the multi-AGC kinase inhibitor AT13148 was used as a positive control. The reaction was analyzed by performing immunoblotting for phosphorylated ENSA, and the results of the analysis were shown in FIG. 1B, and the results of the experiments confirming the cell survival and the kinase inhibitor activity were shown in FIG. 1C.
A protein kinase analysis was performed using the ADP-Glo™ kinase assay kit according to the standard protocol provided by Promega. […] Then, the reacted product was transferred to a 384-well white plate, and […] was read using a SpectraMax i3× Multi-Mode Microplate Reader (Molecular Devices), and GKI-1, N-(4-chlorophenyl)-3-(1H-pyrazol-4-yl)aniline and AT13148 were used as positive controls. The effect of inhibiting kinase activity of GKI-1 and MKI-1 and its IC50 confirmed through the reading result were shown in FIG. 2. […]

SMILES | IC50 (MASTL kinase [1]) | phosphorylation of ENSA in MCF7 relative to DMSO [2] | activation of AKT / phosphorylated GSK-3 (AKT) | expression level of phosphorylated H3 (phospho-H3 (S10)) | ENSA phosphorylation (p-ENSA) in vitro (MASTL kinase [3])
Clc1ccc(Nc2cccc(-c3cn[nH]c3)c2)cc1 [GKI-1, N-(4-chlorophenyl)-3-(1H-pyrazol-4-yl)aniline, reference compound] | 12 µM |  |  |  | 
O=C(Nc1nc2ccccc2[nH]1)c1cccc(-n2cccc2)c1 [MKI-1, N-1H-benzimidazol-2-yl-3-(1H-pyrrol-1-yl) benzamide] | 11.6 µM | close to about half of that of DMSO | did not regulate the activities of AKT and phosphorylated GSK-3P | increased the expression level of phosphorylated H3 in a dose-dependent manner | p-ENSA did not appear
